Results published in US11725037B2, “Peptide dual agonists of GIPR and GLP2R” (University of Copenhagen, priority 2017, dated 2023).
Where two headings read alike, the source gives them in different places. Ends that are not written are not given here.

Assays:
[1] = tested on: bone resorption (serum C-terminal cross-linking telopeptide of type I collagen, CTX); experiment: Human study 1: bone resorption by serum CTX after subcutaneous injection of GIP or GLP-2; type: in vivo
Protocol: Method: Eight healthy young men were enrolled. […] Participants arrived in the morning (fasted overnight) and received the injection around 8.30 a.m. Blood samples were collected before (−25 and −10 min) and every 30 minutes after injection (30, 60, 90, 120, 180 and 240 min). After last participant's last visit, bone resorption was determined by measurements of serum C-terminal cross-linking telopeptide of type I collagen (CTX; IDS Immunodiagnostic Systems GmbH, Frankfurt am Main, Germany)

human GIP receptor = biological target: T1, human GIP receptor (Homo sapiens, UniProt P48546); experiment: cAMP accumulation assay (HitHunter cAMP XS) in transiently transfected COS-7 cells expressing the human GIP receptor; type: cell-based; conditions: for Emax at 10 µM: COS-7, read-out: Emax (10 μM), GIP receptor; for fold (fold change of native GIP), GIP receptor: EC50 relative to native GIP; for Emax at 1 µM: COS-7, read-out: Emax, GIP receptor
T1 construct: host or cells: COS-7 (transient, calcium phosphate; pCMV-Script vector)
T1 sequence (P48546 22-466): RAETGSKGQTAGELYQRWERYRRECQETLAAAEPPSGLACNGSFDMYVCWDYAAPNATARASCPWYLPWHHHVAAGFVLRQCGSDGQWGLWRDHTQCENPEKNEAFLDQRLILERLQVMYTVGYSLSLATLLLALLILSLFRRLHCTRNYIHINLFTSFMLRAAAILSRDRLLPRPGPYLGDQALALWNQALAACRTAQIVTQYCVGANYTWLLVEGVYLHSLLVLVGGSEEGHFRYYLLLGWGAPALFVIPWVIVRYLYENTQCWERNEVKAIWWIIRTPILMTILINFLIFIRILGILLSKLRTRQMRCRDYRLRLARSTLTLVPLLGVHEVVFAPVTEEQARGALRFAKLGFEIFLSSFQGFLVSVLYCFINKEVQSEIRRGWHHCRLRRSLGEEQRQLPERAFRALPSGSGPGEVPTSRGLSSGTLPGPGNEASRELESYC
Protocol: (§1) The day after, the cells were washed twice with Hepes buffered saline (HBS) buffer and incubated with HBS and 1 mM 3-isobutyl-1-methylxanthine (IBMX) for 30 min at 37° C. Ligands were added and incubated for 30 min at 37° C. The HitHunter™ cAMP XS assay (DiscoveRx) was carried out according to the manufacturer's instructions.

human GLP-2 receptor = biological target: T2, human GLP-2 receptor (Homo sapiens, UniProt O95838); experiment: cAMP accumulation assay (HitHunter cAMP XS) in transiently transfected COS-7 cells expressing the human GLP-2 receptor; type: cell-based; conditions: for Emax at 10 µM: COS-7, read-out: Emax (10 μM), GLP-2 receptor; for fold (fold change of native GLP-2), GLP-2 receptor: EC50 relative to native GLP-2; for Emax at 1 µM: COS-7, read-out: Emax, GLP-2 receptor
T2 construct: host or cells: COS-7 (transient, calcium phosphate; pCMV-Script vector)
T2 sequence (O95838 1-553): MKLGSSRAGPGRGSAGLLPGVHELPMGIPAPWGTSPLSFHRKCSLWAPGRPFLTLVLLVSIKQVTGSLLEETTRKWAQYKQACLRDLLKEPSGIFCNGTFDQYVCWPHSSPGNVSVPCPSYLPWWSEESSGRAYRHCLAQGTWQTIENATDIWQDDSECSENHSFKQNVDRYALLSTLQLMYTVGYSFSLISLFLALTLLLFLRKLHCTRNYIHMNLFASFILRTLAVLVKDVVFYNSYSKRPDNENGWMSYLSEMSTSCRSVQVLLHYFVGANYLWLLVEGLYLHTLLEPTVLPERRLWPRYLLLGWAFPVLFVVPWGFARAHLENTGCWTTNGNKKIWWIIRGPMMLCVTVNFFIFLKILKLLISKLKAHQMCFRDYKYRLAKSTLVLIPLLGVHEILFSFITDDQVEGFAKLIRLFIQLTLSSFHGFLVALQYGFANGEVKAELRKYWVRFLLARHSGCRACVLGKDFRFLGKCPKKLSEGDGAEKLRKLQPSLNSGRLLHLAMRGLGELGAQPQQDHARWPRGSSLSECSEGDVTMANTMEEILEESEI
Protocol: as §1

[2] = logEC50, GIP receptor, Table 2, log value, cAMP, COS-7
[3] = logEC50, GLP-2 receptor, Table 2, cAMP, COS-7
[4] = logEC50, GLP-2 receptor, Table 1, cAMP, COS-7
[5] = logEC50, GIP receptor, Table 1, log value, cAMP, COS-7
[6] = EC50(nM), GLP-2 receptor, Table 1, cAMP, COS-7

| Compound | Emax at 10 µM (human GIP receptor) [%] | Emax at 10 µM (human GLP-2 receptor) [%] | fold (fold change of native GLP-2), GLP-2 receptor (human GLP-2 receptor; Table 1) [fold] | fold (fold change of native GIP), GIP receptor (human GIP receptor; Table 1) [fold] | other results |
| --- | --- | --- | --- | --- | --- |
| CC[C@H](C)[C@H](NC(=O)[C@H](Cc1ccccc1)NC(=O)[C@H](CC(=O)O)NC(=O)[C@H](CCCNC(=N)N)NC(=O)[C@H](C)NC(=O)[C@H](C)NC(=O)[C@H](CC(C)C)NC(=O)[C@H](CC(N)=O)NC(=O)[C@H](CC(=O)O)NC(=O)[C@H](CC(C)C)NC(=O)[C@@H](NC(=O)[C@@H](NC(=O)[C@H](CC(N)=O)NC(=O)[C@H](CCSC)NC(=O)[C@H](CCC(=O)O)NC(=O)[C@H](CC(=O)O)NC(=O)[C@H](CO)NC(=O)[C@H](Cc1ccccc1)NC(=O)[C@H](CO)NC(=O)CNC(=O)[C@H](CC(=O)O)NC(=O)[C@H](C)NC(=O)[C@@H](N)Cc1c[nH]cn1)[C@@H](C)O)[C@@H](C)CC)C(=O)N[C@@H](CC(N)=O)C(=O)N[C@@H](Cc1c[nH]c2ccccc12)C(=O)N[C@@H](CC(C)C)C(=O)N[C@H](C(=O)N[C@@H](CCC(N)=O)C(=O)N[C@H](C(=O)N[C@@H](CCCCN)C(=O)N[C@H](C(=O)N[C@H](C(=O)N[C@@H](CC(=O)O)C(=O)O)[C@@H](C)O)[C@@H](C)CC)[C@@H](C)O)[C@@H](C)CC [GLP-2, reference compound] | 22 | – | – | – | reduction in bone resorption (CTX) ([1]; 200 μg GIP and 800 μg GLP-2, each alone, s.c., restated in Example 4): ~50%; bone resorption (CTX), maximum effect, % of base line ([1]; human GLP-2 800 μg s.c., healthy young men, 180 min after administration): 63.4±3.4 % of base line; EC50 (human GIP receptor; EC50(nM), GIP receptor, Table 1, cAMP, COS-7): 56 nM |
| HADGTFISDYSKILDNLAARDFINWLIQTKITK [Co-agonist 24] | 100 | 96 | – | – | fold (fold change of native GLP-2), GLP-2 receptor (human GLP-2 receptor; Table 2): 0.62 fold; fold (fold change of native GIP), GIP receptor (human GIP receptor; Table 2): 1.7 fold; EC50 (human GIP receptor; [2]): 0.151 nM |
| HADGTFISDYSTIKDNLAARDFINWLIQTKITK [Co-agonist 25] | 92 | 92 | – | – | fold (fold change of native GLP-2), GLP-2 receptor (human GLP-2 receptor; Table 2): 2.9 fold; EC50 (human GLP-2 receptor; [3]): 3.47 nM; fold (fold change of native GIP), GIP receptor (human GIP receptor; Table 2): 4.9 fold |
| HADGTFISDYSTILDKLAARDFINWLIQTKITK [Co-agonist 26] | 100 | 100 | – | – | fold (fold change of native GLP-2), GLP-2 receptor (human GLP-2 receptor; Table 2): 0.26 fold; EC50 (human GLP-2 receptor; [3]): 0.309 nM; fold (fold change of native GIP), GIP receptor (human GIP receptor; Table 2): 0.34 fold; EC50 (human GIP receptor; [2]): 0.0302 nM |
| HADGTFISDYSTILDNLAARDFINWLIQTKGKKNDWKHNITQ [Co-agonist 34] | 100 | 94 | – | – | EC50 (human GLP-2 receptor; [3]): 1.15 nM |
| HADGTFISDYSTILDNLAARDFINWLIQTKGTD [Co-agonist 16] | 95 | 74 | 68 | 6.7 | EC50 (human GLP-2 receptor; [4]): 87.1 nM |
| HADGTFISDYSTILDNLAARDFINWLIQTKIKD [Co-agonist 17] | 95 | 88 | 21 | 4.5 | EC50 (human GLP-2 receptor; [4]): 24.5 nM |
| HADGTFISDYSTILDNLKARDFINWLIQTKITK [Co-agonist 27] | 100 | 100 | – | – | fold (fold change of native GLP-2), GLP-2 receptor (human GLP-2 receptor; Table 2): 0.47 fold; fold (fold change of native GIP), GIP receptor (human GIP receptor; Table 2): 6.2 fold |
| HADGTFISEYSTILDNLAARDFINWLIQTKITD [Co-agonist 15] | 92 | 104 | 5.6 | 36 | EC50 (human GIP receptor; [5]): 3.16 nM |
| HADGTFSSDYSTILDNLAAKDFINWLIQTKITD [Co-agonist 20] | 98 | 80 | – | – | – |
| HADGTFSSDYSTILDNLAARDFINWLIQTKITD [Co-agonist 13] | 91 | 99 | 9.2 | 135 | EC50 (human GLP-2 receptor; [4]): 11.2 nM; EC50 (human GIP receptor; [5]): 12 nM |
| HAEGSFISDYSTILDNLAARDFINWLIQTKITD [Co-agonist 4] | 83 | 90 | 21 | 427 | EC50 (human GLP-2 receptor; [6]): 25 nM; EC50 (human GLP-2 receptor; [4]): 25.7 nM; EC50 (human GIP receptor; [5]): 38 nM |
| HAEGTFISDMNTILDNLAARDFINWLIQTKITD [Co-agonist 6] | 83 | 70 | 50 | 1933 | – |
| HAEGTFISDYSIAMDKLAARDFINWLIQTKITD [Co-agonist 7] | 92 | 78 | 293 | 292 | EC50 (human GIP receptor): 25.7 nM |
| HAEGTFISDYSTILDNIHQQDFINWLIQTKITD [Co-agonist 8] | 100 | 22 | – | 66 | EC50 (human GLP-2 receptor): > 10000 nM |
| HAEGTFISDYSTILDNLAARDFINWLIQTKGKK [Co-agonist 10] | 100 | 77 | 18 | 61 | EC50 (human GLP-2 receptor): 21.9 nM |
| HAEGTFISDYSTILDNLAARDFINWLIQTKITD [Co-agonist 1] | – | – | 82 | 337 | Emax at 1 µM (human GLP-2 receptor): 93%; EC50 (human GIP receptor): 29.5 nM; Emax at 1 µM (human GIP receptor): 100% |
| HAEGTFISDYSTILDNLAARDFINWLIQTKITDNDWKHNITQ [Co-agonist 2] | – | – | 121 | 135 | Emax at 1 µM (human GLP-2 receptor): 93%; EC50 (human GIP receptor): 12 nM; Emax at 1 µM (human GIP receptor): 100% |
| HAEGTFISDYSTILDNLAARDFVNWLLAQKITD [Co-agonist 9] | 100 | 67 | 103 | 36 | EC50 (human GIP receptor): 3.16 nM |
| HAEGTFSDEYSTILDNLAARDFINWLIQTKITD [Co-agonist 5] | 75 | 91 | 5.2 | 5124 | EC50 (human GLP-2 receptor; [6]): 6.2 nM |
| HGDGTFISDYSTILDNLAARDFINWLIQTKITD [Co-agonist 11] | 95 | 87 | 20 | 36 | EC50 (human GLP-2 receptor; [4]): 24 nM; EC50 (human GIP receptor; [5]): 3.16 nM |
| HVDGTFISDYSTILDNLAARDFINWLIQTKITD [Co-agonist 12] | 96 | 81 | 21 | 12 | EC50 (human GLP-2 receptor; [4]): 25.1 nM; EC50 (human GIP receptor; [5]): 1.1 nM |
